Experimental data reported in patent publication US12115209B2, “ROMO1-derived antimicrobial peptides including lysine substitution and variants thereof” (KOREA UNIVERSITY RESEARCH AND BUSINESS FOUNDATION, priority 2019, dated 2024).

Legend:
Assay type in all cases: cell-based
[1] = tested on: Staphylococcus aureus (ATCC 29213); assay: Minimum bactericidal concentration (MBC) assay; design: MBC Staphylococcus aureus: unit: µg/mL
Method: (§1) First, each of Pseudomonas aeruginosa (ATCC 27853) and Staphylococcus aureus (ATCC 29213) was cultured in 3% (w/v) TSB (tryptic soy broth) liquid medium at 37° C. and 200 rpm for 4 hours, and then further cultured under the same conditions for 3 hours to a concentration of 5×10^6 CFU/ml. Strain solutions were prepared by diluting each of the further cultured strains with SP (sodium phosphate; 10 mM sodium phosphate, 1% TSB) buffer to a final concentration of 2×10^5 CFU/ml.
(§2) Then, each peptide at varying concentrations (0 μg/ml to 300 μg/ml) was dispensed into each well of a 96-well microplate, and 100 μl (1×10^5 CFU/ml) of each of the prepared strain solutions was added thereto, mixed therewith, and allowed to react with the peptide in an incubator at 37° C. for 1 hour.
(§3) In addition, 30 g/L of TS (tryptic soy) and 15 g/L of agar were dissolved in distilled water and sterilized, and then 25 ml of the solution was poured onto a 100 mm round plate and solidified at room temperature for one day or more, thereby preparing a TS agar plate. 10 μl of each reaction solution of the peptide and the strain was plated on the TS agar plate at a constant size, and incubated in an incubator at 37° C. for 18 hours, and then colony formation on the plate was checked. The minimum bactericidal concentration was defined as the minimum concentration of the peptide at which no colony was formed, and the experimental results are shown in Table 1 below.

[2] = tested on: Pseudomonas aeruginosa (ATCC 27853); assay: Minimum bactericidal concentration (MBC) assay; design: MBC Pseudomonas aeruginosa: unit: µg/mL
Method: as §1, §2, §3

[3] = tested on: Methicillin-resistant Staphylococcus aureus (MRSA, ATCC 33591); assay: Minimum bactericidal concentration (MBC) assay; design: unit: µg/mL
Method: as §1, with “2×10^5 CFU/ml. […]” for “2×10^5 CFU/ml.”
as §3, with “checked.” for “checked. The minimum bactericidal concentration was defined as the minimum concentration of the peptide at which no colony was formed, and the experimental results are shown in Table 1 below.”
Specifically, each type of bacteria was cultured in 3% (w/v) TSB (tryptic soy broth) liquid medium at 37° C. and 200 rpm for 4 hours, and then further cultured under the same conditions for 3 hours to a concentration of 5×10^6 CFU/ml. Strain solutions were prepared by diluting each of the further cultured strains with SP buffer to a final concentration of 2×10^5 CFU/ml.
as §2, with “Then, the KU-5878” for “Then, each”
In addition, 10 μl of each reaction solution of the peptide and the strain was plated on the TS agar plate at a constant size, and incubated in an incubator at 37° C. for 18 hours, and then colony formation on the plate was checked.

[4] = tested on: CRPA; assay: Minimum bactericidal concentration (MBC) assay; design: unit: µg/mL
[5] = tested on: Pseudomonas aeruginosa, Staphylococcus aureus, CRPA, MRSA; assay: Increase in antibacterial activity (MBC) compared with KU-5878
[6] = mark = antibacterial activity increased compared with KU-5878

d 60M 69T 71M 75M (MKKGGKFG)
MBC Staphylococcus aureus ([1]; Staphylococcus aureus): 1 µg/mL
MBC Pseudomonas aeruginosa ([2]; Pseudomonas aeruginosa): 2 µg/mL
MBC MRSA ([3]; MRSA): 2 µg/mL
MBC CRPA ([4]; CRPA): 2 µg/mL
Increase in activity ([5]; compared with KU-5878): ◯

KK-MKKGGKFGTF-AIG-GIR [d 60M 71M 75M]
MBC Staphylococcus aureus ([1]; Tables 11-21, no unit printed): 2 µg/mL
MBC Pseudomonas aeruginosa ([2]; Tables 11-21, no unit printed): 2 µg/mL
MBC MRSA ([3]; Tables 11-21, no unit printed): 2 µg/mL
MBC CRPA ([4]; Tables 11-21, no unit printed): 3 µg/mL
Increase in activity [5, 6]: ◯

KKMM-KGGKF-TF--IG-GIR [d 62K 68G 71M 72A 75M]
MBC Staphylococcus aureus ([1]; Tables 11-21, no unit printed): 20 µg/mL
MBC Pseudomonas aeruginosa ([2]; Tables 11-21, no unit printed): 20 µg/mL
MBC MRSA ([3]; Tables 11-21, no unit printed): 25 µg/mL
MBC CRPA ([4]; Tables 11-21, no unit printed): 20 µg/mL
Increase in activity [5, 6]: ◯

KKMM-KGGKFGTF-AIGMGIR [Peptide K4-d62K-d71M]
MBC Staphylococcus aureus ([1]; Tables 11-21, no unit printed): 12 µg/mL
MBC Pseudomonas aeruginosa ([2]; Tables 11-21, no unit printed): 12 µg/mL
MBC MRSA ([3]; Tables 11-21, no unit printed): 12 µg/mL
MBC CRPA ([4]; Tables 11-21, no unit printed): 12 µg/mL
Increase in activity [5, 6]: ◯

-KMM-KGGKF-TFM-IG-GIR [d 58K 62K 68G 72A 75M]
MBC Staphylococcus aureus ([1]; Tables 11-21, no unit printed): 15 µg/mL
MBC Pseudomonas aeruginosa ([2]; Tables 11-21, no unit printed): 16 µg/mL
MBC MRSA ([3]; Tables 11-21, no unit printed): 18 µg/mL
MBC CRPA ([4]; Tables 11-21, no unit printed): 15 µg/mL
Increase in activity [5, 6]: ◯

KKMMKKGGKFG-F-AIG-GIR [d 69T 71M 75M]
MBC Staphylococcus aureus ([1]; Tables 11-21, no unit printed): 2 µg/mL
MBC Pseudomonas aeruginosa ([2]; Tables 11-21, no unit printed): 2 µg/mL
MBC MRSA ([3]; Tables 11-21, no unit printed): 2 µg/mL
MBC CRPA ([4]; Tables 11-21, no unit printed): 3 µg/mL
Increase in activity [5, 6]: ◯

TKMMKKGGKFGTFMAIGMGIR [Peptide K4-K58T]
MBC Staphylococcus aureus ([1]; Tables 11-21, no unit printed): 3
MBC Pseudomonas aeruginosa ([2]; Tables 11-21, no unit printed): 3
MBC MRSA ([3]; Tables 11-21, no unit printed): 4
MBC CRPA ([4]; Tables 11-21, no unit printed): 3
Increase in activity [5, 6]: ◯

KKMMKKGGKFGTF--IGMGIR [Peptide K4-d71M-d72A]
MBC Staphylococcus aureus ([1]; Tables 11-21, no unit printed): 20 µg/mL
MBC Pseudomonas aeruginosa ([2]; Tables 11-21, no unit printed): 20 µg/mL
MBC MRSA ([3]; Tables 11-21, no unit printed): 20 µg/mL
MBC CRPA ([4]; Tables 11-21, no unit printed): 20 µg/mL
Increase in activity [5, 6]: ◯

KKMMKKGGKFGTFMAIGM-IR [Peptide 5878-K4-d76G]
MBC Staphylococcus aureus ([1]; Tables 11-21, no unit printed): 4 µg/mL
MBC Pseudomonas aeruginosa ([2]; Tables 11-21, no unit printed): 4 µg/mL
MBC MRSA ([3]; Tables 11-21, no unit printed): 4 µg/mL
MBC CRPA ([4]; Tables 11-21, no unit printed): 4 µg/mL
Increase in activity [5, 6]: ◯

KTMMQSGGTFGTFMAIGM-IR [Peptide 5878-d76G]
MBC Staphylococcus aureus ([1]; Tables 11-21, no unit printed): 70 µg/mL
MBC Pseudomonas aeruginosa ([2]; Tables 11-21, no unit printed): 80 µg/mL
MBC MRSA ([3]; Tables 11-21, no unit printed): 90 µg/mL
MBC CRPA ([4]; Tables 11-21, no unit printed): 90 µg/mL
Increase in activity [5, 6]: 0

KTMMQSGGTFGTFMAIGMGIRKK [Peptide 5878-KK]
MBC Staphylococcus aureus ([1]; Tables 11-21, no unit printed): 16 µg/mL
MBC Pseudomonas aeruginosa ([2]; Tables 11-21, no unit printed): 15 µg/mL
MBC MRSA ([3]; Tables 11-21, no unit printed): 16 µg/mL
MBC CRPA ([4]; Tables 11-21, no unit printed): 16 µg/mL
Increase in activity [5, 6]: ◯

KTMMQSGGTF-TFMAIGMGIR [Peptide 5878-d68G]
MBC Staphylococcus aureus ([1]; Tables 11-21, no unit printed): 20 µg/mL
MBC Pseudomonas aeruginosa ([2]; Tables 11-21, no unit printed): 25 µg/mL
MBC MRSA ([3]; Tables 11-21, no unit printed): 25 µg/mL
MBC CRPA ([4]; Tables 11-21, no unit printed): 18 µg/mL
Increase in activity [5, 6]: 0

KTMMQS-GTFGTFMAIGMGIR [Peptide 5878-d64G]
MBC Staphylococcus aureus ([1]; Tables 11-21, no unit printed): 100 µg/mL
MBC Pseudomonas aeruginosa ([2]; Tables 11-21, no unit printed): 100 µg/mL
MBC MRSA ([3]; Tables 11-21, no unit printed): 100 µg/mL
MBC CRPA ([4]; Tables 11-21, no unit printed): 110 µg/mL
Increase in activity [5, 6]: 0

KKMMKKGGKF-TFMAIGMGIR [Peptide 5878-K4-d68G]
MBC Staphylococcus aureus ([1]; Tables 11-21, no unit printed): 4 µg/mL
MBC Pseudomonas aeruginosa ([2]; Tables 11-21, no unit printed): 4 µg/mL
MBC MRSA ([3]; Tables 11-21, no unit printed): 4 µg/mL
MBC CRPA ([4]; Tables 11-21, no unit printed): 6 µg/mL
Increase in activity [5, 6]: ◯

KKMMKKGGKFGTF-AIGMGIR [Peptide 5878-K4-d71M]
MBC Staphylococcus aureus ([1]; Tables 11-21, no unit printed): 4 µg/mL
MBC Pseudomonas aeruginosa ([2]; Tables 11-21, no unit printed): 2 µg/mL
MBC MRSA ([3]; Tables 11-21, no unit printed): 4 µg/mL
MBC CRPA ([4]; Tables 11-21, no unit printed): 6 µg/mL
Increase in activity [5, 6]: ◯

KTMMQSGGTFGTFMAIGMGIRRRR [Peptide 5878-3R]
MBC Staphylococcus aureus ([1]; Tables 11-21, no unit printed): 8 µg/mL
MBC Pseudomonas aeruginosa ([2]; Tables 11-21, no unit printed): 8 µg/mL
MBC MRSA ([3]; Tables 11-21, no unit printed): 10 µg/mL
MBC CRPA ([4]; Tables 11-21, no unit printed): 8 µg/mL
Increase in activity [5, 6]: ◯

KT-MQSGGTFGTFMAIGMGIR [Peptide 5878-d60M]
MBC Staphylococcus aureus ([1]; Tables 11-21, no unit printed): 90 µg/mL
MBC Pseudomonas aeruginosa ([2]; Tables 11-21, no unit printed): 90 µg/mL
MBC MRSA ([3]; Tables 11-21, no unit printed): 100 µg/mL
MBC CRPA ([4]; Tables 11-21, no unit printed): 90 µg/mL
Increase in activity [5, 6]: 0

-K-MKKGGKFGTFMAIG-GIR [d 58K 60M 75M]
MBC Staphylococcus aureus ([1]; Tables 11-21, no unit printed): 6 µg/mL
MBC Pseudomonas aeruginosa ([2]; Tables 11-21, no unit printed): 6 µg/mL
MBC MRSA ([3]; Tables 11-21, no unit printed): 8 µg/mL
MBC CRPA ([4]; Tables 11-21, no unit printed): 8 µg/mL
Increase in activity [5, 6]: ◯
